Results on 43 compounds are retold here after patent US6867207B2, “IL-5 inhibiting 6-azauracil derivatives” (Janssen Pharmaceutica N.V., priority 1997, dated 2005).

Each structure is given as a SMILES string.

One data set has as its system IL-5 production. The data set can be described thus: In vitro inhibition of IL-5 production in human blood (phytohemagglutinin-stimulated whole blood, ELISA).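 Further: values marked with an asterisk were tested at 10 µM and unmarked values at 1 µM.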 In kind it is cell-based. The note with it: test dose 1×10^−6 M, 48 hours. Put shortly:
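Heparinised blood from healthy male donors, diluted threefold in RPMI 1640, preincubated 60 min at 37° C with compound (0.02% DMSO vehicle), then stimulated with 2 μg/mL phytohemagglutinin for 48 h. Supernatant IL-5 measured by ELISA; percentage inhibition at 1×10^−6 M or 1×10^−5 M.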
As to `Cc1oc(C(c2ccc(Cl)cc2)c2c(Cl)cc(-n3ncc(=O)[nH]c3=O)cc2Cl)nc1-c1ccccc1` (stereo not shown) [Comp 426], the “% inh. (percentage inhibition of IL-5 production)” value worked out at 92%.
On the same count and under the same terms, to `O=c1cnn(-c2cc(Cl)c(C(c3ccc(Cl)cc3)c3nnc(-c4ccccc4)s3)c(Cl)c2)c(=O)[nH]1` (stereo not shown) [Comp 427] belongs 72%; to `Cn1c(-c2ccccc2)nnc1C(c1ccc(Cl)cc1)c1c(Cl)cc(-n2ncc(=O)[nH]c2=O)cc1Cl.O` (stereo not shown) [Comp 428], 66%.
The same measure, in the same setting: to `Cn1c(C(c2ccc(Cl)cc2)c2c(Cl)cc(-n3ncc(=O)[nH]c3=O)cc2Cl)cnc1-c1ccccc1` (stereo not shown) [Comp 430] belongs 89%; to `Cc1oc(C(c2ccc(Cl)cc2)c2c(Cl)cc(-n3ncc(=O)[nH]c3=O)cc2Cl)nc1-c1ccc(F)cc1` (stereo not shown) [Comp 431], 67%; to `O=c1cnn(-c2ccc(C(c3ccc(Cl)cc3)c3nc4sccn4c3-c3ccccc3)c(Cl)c2)c(=O)[nH]1` (stereo not shown) [Comp 432], 82%.
Turning to `O=c1cnn(-c2ccc(C(C3=C(c4ccccc4)SC4=NCCN43)c3ccc(Cl)cc3)c(Cl)c2)c(=O)[nH]1` (stereo not shown) [Comp 433], the “% inh. (percentage inhibition of IL-5 production)” value was determined as 53%.
Still for that read-out and setting: to `O=c1cnn(-c2ccc(C(Sc3nccc(-c4cccs4)n3)c3ccc(Cl)cc3)c(Cl)c2)c(=O)[nH]1` (stereo not shown) [Compound 84] belongs 73%; to `Cc1nnc(SC(c2ccc(Cl)cc2)c2ccc(-n3ncc(=O)[nH]c3=O)cc2Cl)[nH]c1=O` (stereo not shown) [Compound 85], 38%.
The same measure, in the same setting: to `O=c1cnn(-c2ccc(C(Sc3ccccn3)c3ccc(Cl)c(C(F)(F)F)c3)c(Cl)c2)c(=O)[nH]1` (stereo not shown) [Compound 86] belongs 84%.
Same read-out and setting: to `Nc1cc(O)nc(SC(c2ccc(Cl)cc2)c2ccc(-n3ncc(=O)[nH]c3=O)cc2Cl)n1` (stereo not shown) [Compound 87] belongs 9%; to `O=c1cnn(-c2ccc(C(Sc3ccc(C(F)(F)F)cn3)c3ccc(Cl)cc3)c(Cl)c2)c(=O)[nH]1` (stereo not shown) [Compound 88], 26%; to `O=c1cnn(-c2ccc(C(Sc3nnc(C(F)(F)F)[nH]3)c3ccc(Cl)cc3)c(Cl)c2)c(=O)[nH]1` (stereo not shown) [Compound 89], 19%.
With `O=c1cnn(-c2ccc(C(SC3CCCCC3)c3ccc(Cl)cc3)c(Cl)c2)c(=O)[nH]1` (stereo not shown) [Compound 90], the “% inh. (percentage inhibition of IL-5 production)” value came to 60%.
On the same count and under the same terms, to `O=c1cnn(-c2cc(Cl)c(C(c3ccc(Cl)cc3)c3nnc(-c4ccccc4)o3)c(Cl)c2)c(=O)[nH]1` (stereo not shown) [Compound 189, (A)-2-[3,5-dichloro-4-[(4-chlorophenyl)(5-phenyl-1,3,4-oxadizol-2-yl)methyl]phenyl]-1,2,4-triazine-3,5(2H,4H)-dione] belongs 82%; to `O=c1cnn(-c2cc(Cl)c(C(c3ccc(Cl)cc3)c3nnc(-c4ccccc4)o3)c(Cl)c2)c(=O)[nH]1` (stereo not shown) [Compound 190, (B)-2-[3,5-dichloro-4-[(4-chlorophenyl)(5-phenyl-1,3,4-oxadizol-2-yl)methyl]phenyl]-1,2,4-triazine-3,5(2H,4H)-dione], 83%.
Same read-out and setting: to `O=c1cnn(-c2cc(Cl)c(C(Sc3nc4cccnc4s3)c3ccc(Cl)cc3)c(Cl)c2)c(=O)[nH]1` (stereo not shown) [Compound 376] belongs 92%; to `O=c1cnn(-c2cc(Cl)c(C(Sc3ccccn3)c3ccc(Cl)cc3)c(Cl)c2)c(=O)[nH]1` (stereo not shown) [Compound 377], 87%; to `O=c1cnn(-c2cc(Cl)c(C(Sc3ccccn3)c3ccc(Cl)c(C(F)(F)F)c3)c(Cl)c2)c(=O)[nH]1` (stereo not shown) [Compound 378], 91%.
On the same count and under the same terms, to `O=c1cnn(-c2cc(Cl)c(C(Sc3nc4ccccc4o3)c3ccc(Cl)c(C(F)(F)F)c3)c(Cl)c2)c(=O)[nH]1` (stereo not shown) [Compound 379] belongs 95%; to `O=c1cnn(-c2cc(Cl)c(C(Sc3nc(-c4ccccc4)cs3)c3ccc(Cl)cc3)c(Cl)c2)c(=O)[nH]1` (stereo not shown) [Compound 380], 95%.
For `O=c1cnn(-c2cc(Cl)c(C(Sc3nc(-c4ccccc4)cs3)c3ccc(Cl)c(C(F)(F)F)c3)c(Cl)c2)c(=O)[nH]1` (stereo not shown) [Compound 381], the “% inh. (percentage inhibition of IL-5 production)” value is 95%.
Same read-out and setting: to `O=c1cnn(-c2cc(Cl)c(C(Sc3nc4cccnc4s3)c3ccc(Cl)c(C(F)(F)F)c3)c(Cl)c2)c(=O)[nH]1` (stereo not shown) [Compound 382] belongs 95%.
Turning to `O=c1cnn(-c2cc(Cl)c(C(Sc3nc4ccccc4o3)c3ccc(Cl)cc3)c(Cl)c2)c(=O)[nH]1` (stereo not shown) [Compound 383], the “% inh. (percentage inhibition of IL-5 production)” value came out at 78%.
For the compound `O=c1cnn(-c2cc(Cl)c(C(Sc3nc4ccccc4s3)c3ccc(Cl)cc3)c(Cl)c2)c(=O)[nH]1` (stereo not shown) [Compound 384], the “% inh. (percentage inhibition of IL-5 production)” value is recorded as 95%.
On to `O=c1cnn(-c2cc(Cl)c(C(Sc3nc4ccccc4s3)c3ccc(Cl)c(C(F)(F)F)c3)c(Cl)c2)c(=O)[nH]1` (stereo not shown) [Compound 385], for which the “% inh. (percentage inhibition of IL-5 production)” value was determined as 95%.
For `O=c1cnn(-c2cc(Cl)c(C(SC3=NCCS3)c3ccc(Cl)c(C(F)(F)F)c3)c(Cl)c2)c(=O)[nH]1` (stereo not shown) [Compound 386], the “% inh. (percentage inhibition of IL-5 production)” value worked out at 97%.
The same measure, in the same setting: to `O=c1cnn(-c2cc(Cl)c(C(Sc3cscn3)c3ccc(Cl)c(C(F)(F)F)c3)c(Cl)c2)c(=O)[nH]1` (stereo not shown) [Compound 387] belongs 93%.
For the compound `O=c1cnn(-c2cc(Cl)c(C(Sc3nc4ccc([N+](=O)[O-])cc4s3)c3ccc(Cl)c(C(F)(F)F)c3)c(Cl)c2)c(=O)[nH]1` (stereo not shown) [Compound 388], the “% inh. (percentage inhibition of IL-5 production)” value turned out to be 90%.
The same measure, in the same setting: to `Nc1ccc2nc(SC(c3ccc(Cl)c(C(F)(F)F)c3)c3c(Cl)cc(-n4ncc(=O)[nH]c4=O)cc3Cl)sc2c1` (stereo not shown) [Compound 389] belongs 91%; to `O=c1cnn(-c2cc(Cl)c(C(Sc3nc(-c4cccs4)cs3)c3ccc(Cl)c(C(F)(F)F)c3)c(Cl)c2)c(=O)[nH]1` (stereo not shown) [Compound 390], 89%.
As to `O=c1cnn(-c2cc(Cl)c(C(Sc3nnc(-c4ccccc4)o3)c3ccc(Cl)c(C(F)(F)F)c3)c(Cl)c2)c(=O)[nH]1` (stereo not shown) [Compound 391], the “% inh. (percentage inhibition of IL-5 production)” value stood at 97%.
On the same count and under the same terms, to `Cc1sc(SC(c2ccc(Cl)c(C(F)(F)F)c2)c2c(Cl)cc(-n3ncc(=O)[nH]c3=O)cc2Cl)nc1-c1ccccc1` (stereo not shown) [Compound 392] belongs 87%; to `Nc1ccc(SC(c2ccc(Cl)c(C(F)(F)F)c2)c2c(Cl)cc(-n3ncc(=O)[nH]c3=O)cc2Cl)cc1` (stereo not shown) [Compound 393], 93%; to `CCOc1ccc2nc(SC(c3ccc(Cl)c(C(F)(F)F)c3)c3c(Cl)cc(-n4ncc(=O)[nH]c4=O)cc3Cl)sc2c1` (stereo not shown) [Compound 394], 93%.
`O=c1cnn(-c2cc(Cl)c(C(Sc3nc4ccccc4[nH]3)c3ccc(Cl)c(C(F)(F)F)c3)c(Cl)c2)c(=O)[nH]1` (stereo not shown) [Compound 396]: the “% inh. (percentage inhibition of IL-5 production)” value stood at 28%.
Still for that read-out and setting: to `O=c1cnn(-c2cc(Cl)c(C(Sc3nc(-c4ccc(F)cc4F)cs3)c3ccc(Cl)c(C(F)(F)F)c3)c(Cl)c2)c(=O)[nH]1` (stereo not shown) [Compound 397] belongs 83%.

Staying with this data set, now noted: test dose 1×10^−6 M, 48 hours, read-out: % inh. (percentage inhibition of IL-5 production).
Turning to `O=C(CO)Nc1ccccc1-c1nnc(C(c2ccc(Cl)cc2)c2c(Cl)cc(-n3ncc(=O)[nH]c3=O)cc2Cl)o1` (racemic) [Compound 213, (±)-N-[2-[5-[(4-chlorophenyl)[2,6-dichloro-4-(4,5-dihydro-3,5-dioxo-1,2,4-triazin-2(3H)-yl)phenyl]methyl]-1,3,4-oxadiazol-2-yl]phenyl]-2-hydroxyacetamide], the inhibition at 1 µM was 32%.
Still for that read-out and setting: to `O=C(O)c1sc(C(c2ccc(Cl)cc2)c2c(Cl)cc(-n3ncc(=O)[nH]c3=O)cc2Cl)nc1-c1ccccc1` (racemic) [Compound 299, (±)-2-[(4-chlorophenyl)[2,6-dichloro-4-(4,5-dihydro-3,5-dioxo-1,2,4-triazin-2(3H)-yl)phenyl]-methyl]-4-phenyl-5-thiazolcarboxylic acid] belongs 38%; to `CN(C)C(=O)c1sc(C(c2ccc(Cl)cc2)c2c(Cl)cc(-n3ncc(=O)[nH]c3=O)cc2Cl)nc1-c1ccccc1` (racemic) [Compound 303, (±)-N,N-dimethyl-2-[(4-chlorophenyl)[2,6-dichloro-4-(4,5-dihydro-3,5-dioxo-1,2,4-triazin-2(3H)-yl)phenyl]methyl]-4-phenylthiazol-5-carboxamide], 85%.
The same measure, in the same setting: to `CN(C)Cc1sc(C(c2ccc(Cl)cc2)c2c(Cl)cc(-n3ncc(=O)[nH]c3=O)cc2Cl)nc1-c1ccccc1F` (racemic) [Compound 325, (±)-2-[4-[(4-chlorophenyl)[5-[(dimethylamino)methyl]-4-(2-fluorophenyl)-2-thiazolyl]methyl]-3,5-dichlorophenyl]-1,2,4-triazine-3,5(2H,4H)-dione] belongs 95%; to `NCc1sc(C(c2ccc(Cl)cc2)c2c(Cl)cc(-n3ncc(=O)[nH]c3=O)cc2Cl)nc1-c1ccccc1` (racemic) [Compound 329, (±)-2-[4-[[5-(aminomethyl)-4-phenyl-2-thiazolyl](4-chlorophenyl)methyl]-3,5-dichlorophenyl]-1,2,4-triazine-3,5(2H,4H)-dione], 88%.
On the same count and under the same terms, to `O=c1cnn(-c2ccc(C(c3ccc(Cl)cc3)c3nc(-c4ccccc4)cs3)c(Cl)c2)c(=O)[nH]1` (racemic) [Compound 419, (±)-2-[3-chloro-4-[(4-chlorophenyl)(4-phenyl-2-thiazolyl)methyl]phenyl]-1,2,4-triazine-3,5(2H,4H)-dione] belongs 5%.

System in a further data set: not given
Assay: not given
Details: not given
For the compound `O=C(CO)Nc1ccccc1-c1nnc(C(c2ccc(Cl)cc2)c2c(Cl)cc(-n3ncc(=O)[nH]c3=O)cc2Cl)o1` (racemic) [Compound 213, (±)-N-[2-[5-[(4-chlorophenyl)[2,6-dichloro-4-(4,5-dihydro-3,5-dioxo-1,2,4-triazin-2(3H)-yl)phenyl]methyl]-1,3,4-oxadiazol-2-yl]phenyl]-2-hydroxyacetamide], the melting point was determined as 235 °C.
In the case of `O=C(O)c1sc(C(c2ccc(Cl)cc2)c2c(Cl)cc(-n3ncc(=O)[nH]c3=O)cc2Cl)nc1-c1ccccc1` (racemic) [Compound 299, (±)-2-[(4-chlorophenyl)[2,6-dichloro-4-(4,5-dihydro-3,5-dioxo-1,2,4-triazin-2(3H)-yl)phenyl]-methyl]-4-phenyl-5-thiazolcarboxylic acid], the melting point amounted to 206 °C.
Same read-out and setting: to `CN(C)C(=O)c1sc(C(c2ccc(Cl)cc2)c2c(Cl)cc(-n3ncc(=O)[nH]c3=O)cc2Cl)nc1-c1ccccc1` (racemic) [Compound 303, (±)-N,N-dimethyl-2-[(4-chlorophenyl)[2,6-dichloro-4-(4,5-dihydro-3,5-dioxo-1,2,4-triazin-2(3H)-yl)phenyl]methyl]-4-phenylthiazol-5-carboxamide] belongs 150 °C; to `CN(C)Cc1sc(C(c2ccc(Cl)cc2)c2c(Cl)cc(-n3ncc(=O)[nH]c3=O)cc2Cl)nc1-c1ccccc1F` (racemic) [Compound 325, (±)-2-[4-[(4-chlorophenyl)[5-[(dimethylamino)methyl]-4-(2-fluorophenyl)-2-thiazolyl]methyl]-3,5-dichlorophenyl]-1,2,4-triazine-3,5(2H,4H)-dione], 250 °C; to `NCc1sc(C(c2ccc(Cl)cc2)c2c(Cl)cc(-n3ncc(=O)[nH]c3=O)cc2Cl)nc1-c1ccccc1` (racemic) [Compound 329, (±)-2-[4-[[5-(aminomethyl)-4-phenyl-2-thiazolyl](4-chlorophenyl)methyl]-3,5-dichlorophenyl]-1,2,4-triazine-3,5(2H,4H)-dione], 170 °C.
Still for that read-out and setting: to `O=c1cnn(-c2ccc(C(c3ccc(Cl)cc3)c3nc(-c4ccccc4)cs3)c(Cl)c2)c(=O)[nH]1` (racemic) [Compound 419, (±)-2-[3-chloro-4-[(4-chlorophenyl)(4-phenyl-2-thiazolyl)methyl]phenyl]-1,2,4-triazine-3,5(2H,4H)-dione] belongs 90 °C.
